Assay results: patent US20210147932A1, “FLUORESCENT PROBES FOR QUANTIFICATION OF DNA DAMAGE AND REPAIR” (The Board of Trustees of the Leland Stanford Junior …, priority 2019, published 2021)

Biological target: T1, NTH1 (Homo sapiens, UniProt P78549)
T1 construct: purchased Novus biologics
T1 sequence (P78549 23-304): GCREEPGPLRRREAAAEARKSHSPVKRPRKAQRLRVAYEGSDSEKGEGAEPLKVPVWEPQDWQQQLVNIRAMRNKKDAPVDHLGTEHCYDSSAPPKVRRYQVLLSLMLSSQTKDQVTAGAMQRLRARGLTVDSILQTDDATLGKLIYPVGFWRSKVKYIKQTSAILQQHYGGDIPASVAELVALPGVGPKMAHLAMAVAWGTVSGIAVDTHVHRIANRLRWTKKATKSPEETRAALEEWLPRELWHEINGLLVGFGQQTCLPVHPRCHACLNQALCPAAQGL
Experiment: NTH1 coupled assay with 5-hydroxycytosine DNA hairpin
Assay type: biochemical
Details: NTH1 500 nM, 5hC DNA substrate 60 μM, CCVJ1 20 μM
Experimental: FIG. 15, panels A-G provides quantitative coupled assays using Compound (1) (CCJV1). Shown are data from reaction of lesion containing substrates with UNG and SMUG1 (5 nM) (panel A), MPG (100 nM) (panel B), NTH1 (500 nM) (panel C), OGG1 (100 nM) in real-time (panel D) with lesion containing DNA (2 μM) and CCVJ1 (20 μM) (panels A, B and D) or lesion containing DNA (60 μM) and CCVJ1 (20 μM) […]. […] Delay time tss of 25 minutes indicated with dotted line.
FIG. 16 provides time course of NTH1 (500 nM) with 5-hydroxycytosine containing DNA (60 μM) and Compound (1) (CCVJ1) (20 μM). […] Following a 10-minute incubation period, additional substrate was then added (20 μM) which yielded an increase in fluorescence.
Based on the results of our neighboring base effect study, several glycosylase oligonucleotide substrates were purchased or prepared in which the identity of the base lesion X was varied to correspond to the known activities of different target glycosylases (FIG. 15, panel E). For these studies human enzymes SMUG1/UNG, OGG1, MPG and NTH1, were chosen which represent a diverse array of human glycosylases. […] Assays were carried out in a 60 μL volume in a 384 well format on a microplate reader using a fluorescein filter set. For each enzyme, it was possible to observe a robust fluorescence signal (FIG. 15, panels A-D). […]

## N#C/C(=C\c1cc2c3c(c1)CCCN3CCC2)C(=O)NCCON [CCVJ1]
  overall fold change of fluorescence with NTH1: 20 fold
